Measurements taken from ChEMBL document CHEMBL5247590, “Novel nitrogen mustard-artemisinin hybrids with potent anti-leukemia action through DNA damage and activation of GPx” (Eur J Med Chem, 2022).
Active and inactive are the calls of the source. The rule behind the calls is not given here.

Assays:
A549 = assay: Antiproliferative activity against human A549 cells assessed as cell growth inhibition incubated for 72 hrs by MTT assay; format: functional, cell-based; settings: A549, 72 h
CCRF-CEM [1] = assay: Antiproliferative activity against human CCRF-CEM cells assessed as cell growth inhibition incubated for 72 hrs by MTT assay; format: functional, cell-based
HL-60 = assay: Antiproliferative activity against human HL-60 cells assessed as cell growth inhibition incubated for 72 hrs by MTT assay; format: functional, cell-based; settings: HL-60, 72 h
K562 = assay: Antiproliferative activity against human K562 cells assessed as cell growth inhibition incubated for 72 hrs by MTT assay; format: functional, cell-based; settings: K562, 72 h
CCRF-CEM [2] = assay: Antiproliferative activity against human CCRF-CEM cells assessed as cell growth inhibition incubated for 24 to 72 hrs by CCK8 assay; format: functional, cell-based; settings: dose 0.1875-20 µM, time 24-72 hrs
CCRF-CEM [3] = assay: Antiproliferative activity against human CCRF-CEM cells assessed as cell growth inhibition at 0.1875 to 20 uM by CCK8 assay; format: functional, cell-based; settings: dose 0.1875-20 µM, time 24-48 hrs, TDE = time-dependent effect
CCRF-CEM [4] = assay: Induction of apoptosis in human CCRF-CEM cells incubated for 48 hrs by Hoechst staining based fluorescent microscopy; format: functional, cell-based; settings: dose 1-4 µM
CCRF-CEM [5] = assay: Induction of apoptosis in human CCRF-CEM cells assessed as viable cells at 0.5 uM incubated for 48 hrs by Annexin V-FITC/PI staining based flow cytometry (reference value: 83.4 %); format: functional; settings: read-out: Activity
CCRF-CEM [6] = assay: Induction of apoptosis in human CCRF-CEM cells assessed as late apoptotic cells at 0.5 uM incubated for 48 hrs by Annexin V-FITC/PI staining based flow cytometry (reference value: 3.2 %); format: functional
CCRF-CEM [7] = assay: Induction of apoptosis in human CCRF-CEM cells assessed as early apoptotic cells at 1 uM incubated for 48 hrs by Annexin V-FITC/PI staining based flow cytometry (reference value: 13.4 %); format: functional
CCRF-CEM [8] = assay: Induction of apoptosis in human CCRF-CEM cells assessed as late apoptotic cells at 1 uM incubated for 48 hrs by Annexin V-FITC/PI staining based flow cytometry (reference value: 3.2 %); format: functional
CCRF-CEM [9] = assay: Induction of apoptosis in human CCRF-CEM cells assessed as viable cells at 2 uM incubated for 48 hrs by Annexin V-FITC/PI staining based flow cytometry (reference value: 83.4 %); format: functional; settings: read-out: Activity
CCRF-CEM [10] = assay: Induction of apoptosis in human CCRF-CEM cells assessed as early apoptotic cells at 2 uM incubated for 48 hrs by Annexin V-FITC/PI staining based flow cytometry (reference value: 13.4 %); format: functional
CCRF-CEM [11] = assay: Induction of apoptosis in human CCRF-CEM cells assessed as late apoptotic cells at 2 uM incubated for 48 hrs by Annexin V-FITC/PI staining based flow cytometry (reference value: 3.2 %); format: functional
CCRF-CEM [12] = assay: Induction of apoptosis in human CCRF-CEM cells assessed as necrotic cells at 2 uM incubated for 48 hrs by Annexin V-FITC/PI staining based flow cytometry (reference value: 0.0 %); format: functional
CCRF-CEM [13] = assay: Induction of apoptosis in human CCRF-CEM cells assessed as late apoptotic cells at 4 uM incubated for 48 hrs by Annexin V-FITC/PI staining based flow cytometry (reference value: 3.2 %); format: functional
CCRF-CEM [14] = assay: Induction of apoptosis in human CCRF-CEM cells assessed as necrotic cells at 4 uM incubated for 48 hrs by Annexin V-FITC/PI staining based flow cytometry (reference value: 0.0 %); format: functional
CCRF-CEM [15] = assay: Induction of apoptosis in human CCRF-CEM cells assessed effect on procaspase-3 expression at 0.25 to 0.5 uM incubated for 48 hrs by Western blot analysis; format: functional, cell-based; settings: dose 0.25-0.5 µM
CCRF-CEM [16] = assay: Induction of DNA damage in human CCRF-CEM cells assessed as increase in gammaH2AX phosphorylation at 1 to 4 uM incubated for 24 hrs by DAPI staining based immunofluorescence microscopic analysis; format: functional, cell-based; settings: dose 1-4 µM
CCRF-CEM [17] = assay: Induction of DNA damage in human CCRF-CEM cells assessed as increase in gammaH2AX phosphorylation incubated for 24 hrs by DAPI staining based immunofluorescence microscopic analysis; format: functional, cell-based; settings: dose 1-4 µM
CCRF-CEM [18] = assay: Induction of cell cycle arrest in human CCRF-CEM cells assessed as cell accumulation at G1 phase at 0.25 uM incubated for 24 hrs by PI staining based flow cytometry analysis (reference value: 24.1 %); format: functional
CCRF-CEM [19] = assay: Induction of cell cycle arrest in human CCRF-CEM cells assessed as cell accumulation at S phase at 0.25 uM incubated for 24 hrs by PI staining based flow cytometry analysis (reference value: 15.5 %); format: functional
CCRF-CEM [20] = assay: Induction of cell cycle arrest in human CCRF-CEM cells assessed as cell accumulation at S phase at 0.5 uM incubated for 24 hrs by PI staining based flow cytometry analysis (reference value: 15.5 %); format: functional
CCRF-CEM [21] = assay: Induction of cell cycle arrest in human CCRF-CEM cells assessed as cell accumulation at G2/M phase at 0.5 uM incubated for 24 hrs by PI staining based flow cytometry analysis (reference value: 61.3 %); format: functional
CCRF-CEM [22] = assay: Induction of cell cycle arrest in human CCRF-CEM cells assessed as cell accumulation at G1 phase at 1 uM incubated for 24 hrs by PI staining based flow cytometry analysis (reference value: 24.1 %); format: functional
CCRF-CEM [23] = assay: Induction of cell cycle arrest in human CCRF-CEM cells assessed as cell accumulation at S phase at 1 uM incubated for 24 hrs by PI staining based flow cytometry analysis (reference value: 15.5 %); format: functional
CCRF-CEM [24] = assay: Induction of cell cycle arrest in human CCRF-CEM cells assessed as cell accumulation at G2/M phase at 1 uM incubated for 24 hrs by PI staining based flow cytometry analysis (reference value: 61.3 %); format: functional
CCRF-CEM [25] = assay: Induction of cell cycle arrest in human CCRF-CEM cells assessed as cell accumulation at G1 phase at 2 uM incubated for 24 hrs by PI staining based flow cytometry analysis (reference value: 24.1 %); format: functional
CCRF-CEM [26] = assay: Downregulation of ROS level in human CCRF-CEM cells at 0.125 to 2 uM incubated for 12 hrs by DCFH-DA probe based flow cytometry analysis; format: functional, cell-based; settings: dose 0.125-2 µM
CCRF-CEM [27] = assay: Downregulation of ROS level in human CCRF-CEM cells assessed as effect on H2O2 level at 0.125 to 0.5 uM incubated for 12 hrs in presence of NADPH by DCFH-DA probe based flow cytometry analysis; format: functional, cell-based; settings: dose 0.125-0.5 µM
CCRF-CEM [28] = assay: Downregulation of ROS level in human CCRF-CEM cells assessed as effect on CAT level at 0.125 to 0.5 uM incubated for 12 hrs in presence of NADPH by DCFH-DA probe based flow cytometry analysis; format: functional, cell-based; settings: dose 0.125-0.5 µM
CCRF-CEM [29] = assay: Downregulation of ROS level in human CCRF-CEM cells assessed as H2O2 level at 1 uM incubated for 12 hrs in presence of NADPH by absorbance based assay; format: functional, cell-based
CCRF-CEM [30] = assay: Downregulation of ROS level in human CCRF-CEM cells assessed as CAT level at 1 uM incubated for 12 hrs in presence of NADPH by absorbance based assay; format: functional, cell-based

C[C@@H]1CC[C@H]2[C@@H](C)C(OC(=O)c3ccc(N(CCCl)CCCl)cc3)O[C@@H]3O[C@@]4(C)CC[C@@H]1[C@]32OO4 (stereo partly drawn)
IC50 (A549): 2.87 µM
IC50 (CCRF-CEM [1]): 0.895 µM
IC50 (HL-60): 2.32 µM
IC50 (K562): 22 µM
Activity (CCRF-CEM [2]): Dose-Dependent Effect
Activity (CCRF-CEM [3]): Tde
Activity (CCRF-CEM [4]): Dose-Dependent Effect
viability at 0.5 µM (CCRF-CEM [5]): 64.4%
Activity (CCRF-CEM [6]): 6.9%
Activity (CCRF-CEM [7]): 26.7%
Activity (CCRF-CEM [8]): 12.8%
viability at 2 µM (CCRF-CEM [9]): 53.8%
Activity (CCRF-CEM [10]): 33.4%
Activity (CCRF-CEM [11]): 12.8%
Activity (CCRF-CEM [12]): 0.1%
Activity (CCRF-CEM [13]): 14.8%
Activity (CCRF-CEM [14]): 0.1%
Activity (CCRF-CEM [15]): inactive
Activity (CCRF-CEM [16]): Active
Activity (CCRF-CEM [17]): Dose-Dependent Effect
Activity (CCRF-CEM [18]): 26.8%
Activity (CCRF-CEM [19]): 7.9%
Activity (CCRF-CEM [20]): 6.8%
Activity (CCRF-CEM [21]): 70.8%
Activity (CCRF-CEM [22]): 18.2%
Activity (CCRF-CEM [23]): 35.1%
Activity (CCRF-CEM [24]): 47.6%
Activity (CCRF-CEM [25]): 26.9%
Activity (CCRF-CEM [26]): Dose-Dependent Effect
Activity (CCRF-CEM [27]): Active
Activity (CCRF-CEM [28]): Active
Activity (CCRF-CEM [29]): inactive
Activity (CCRF-CEM [30]): inactive
